Assay results as given in US20140142094A1, “KINASE INHIBITORS” (ICAHN SCHOOL OF MEDICINE AT MOUNT SINAI, priority 2011, published 2014).

Columns and labels:
[1] = test system: K562 (chronic myelogenous leukemia; leukemia cell line +ve for Bcr-Abl); experiment: Cytotoxicity on K562 cancer cell line; assay type: cell-based; details: Homo sapiens; K562 cells, 96 h treatment
Procedure: (§1) The effect of the compounds described herein on tumor cells was determined by the assay described by Latham et al., Oncogene 12:827-837 (1996). Tumor cells K562 (chronic myelogenous leukemia; leukemia cell line +ve for Bcr-Abl) or DU145 (prostate cancer) were plated in 12-well dishes at a cell density of 2.5×10^4 cells per well. The plated cells were treated 24h. later with a DMSO solution of a compound as described herein at multiple concentrations ranging from 0.01 μM to 100 μM. The plates were examined 96 h. later under an inverted microscope, Olympus CK-2 using a 10× objective, and compound activity was noted by physical observation. When necessary, the total number of viable cells was determined by trypsinizing the wells and counting the number of viable cells, as determined by trypan blue exclusion, using a hemacytometer.

DU145 (prostate cancer) = experiment: Cytotoxicity on DU145 cancer cell line; assay type: cell-based; details: Homo sapiens, DU-145; DU145 cells, 96 h treatment
Procedure: as §1

ABL1 = target: T1, ABL1 (Homo sapiens, UniProt P00519); experiment: Kinase inhibition assay (Reaction Biology); assay type: biochemical; details: 10 μM ATP; 5-dose IC50 mode
T1 construct: purchased Reaction Biology Corporation
Procedure: (§2) Kinase assays were performed at Reaction Biology Corporation. To a freshly prepared buffer solution was added the target kinase at a concentration of 20 μM. The contents were mixed gently, and then compound 1b dissolved in DMSO was added to the reaction mixture in the appropriate concentration. The mixture was incubated at room temperature for 30 min. prior to addition of ATP to initiate the reaction. Compound 1b was tested in a 5-dose IC50 mode with 10-fold serial dilutions starting at 10 μM. Staurosporine was used as a control compound in a 10-dose IC50 mode with 3-fold serial dilutions starting at 20 μM. Reaction was carried out at 10 μM ATP concentration.

ABL2/ARG = target: T2, ABL2/ARG (Homo sapiens, UniProt P42684); experiment: Kinase inhibition assay (Reaction Biology); assay type: biochemical; details: 10 μM ATP; 5-dose IC50 mode
T2 construct: purchased Reaction Biology Corporation
Procedure: as §2

FGR = target: T3, FGR (Homo sapiens, UniProt P09769); experiment: Kinase inhibition assay (Reaction Biology); assay type: biochemical; details: 10 μM ATP; 5-dose IC50 mode
T3 construct: purchased Reaction Biology Corporation
Procedure: as §2

PI3K-α = target: T4, PI3K-α (Homo sapiens, UniProt P42336); experiment: Kinase inhibition assay (Reaction Biology); assay type: biochemical; details: Table 2; 10 μM ATP; 5-dose IC50 mode
T4 construct: purchased Reaction Biology Corporation
Procedure: as §2

PI3K-δ = target: T5, PI3K-δ (Homo sapiens, UniProt O00329); experiment: Kinase inhibition assay (Reaction Biology); assay type: biochemical; details: Table 2; 10 μM ATP; 5-dose IC50 mode
T5 construct: purchased Reaction Biology Corporation
T5 sequence (O00329 whole entry): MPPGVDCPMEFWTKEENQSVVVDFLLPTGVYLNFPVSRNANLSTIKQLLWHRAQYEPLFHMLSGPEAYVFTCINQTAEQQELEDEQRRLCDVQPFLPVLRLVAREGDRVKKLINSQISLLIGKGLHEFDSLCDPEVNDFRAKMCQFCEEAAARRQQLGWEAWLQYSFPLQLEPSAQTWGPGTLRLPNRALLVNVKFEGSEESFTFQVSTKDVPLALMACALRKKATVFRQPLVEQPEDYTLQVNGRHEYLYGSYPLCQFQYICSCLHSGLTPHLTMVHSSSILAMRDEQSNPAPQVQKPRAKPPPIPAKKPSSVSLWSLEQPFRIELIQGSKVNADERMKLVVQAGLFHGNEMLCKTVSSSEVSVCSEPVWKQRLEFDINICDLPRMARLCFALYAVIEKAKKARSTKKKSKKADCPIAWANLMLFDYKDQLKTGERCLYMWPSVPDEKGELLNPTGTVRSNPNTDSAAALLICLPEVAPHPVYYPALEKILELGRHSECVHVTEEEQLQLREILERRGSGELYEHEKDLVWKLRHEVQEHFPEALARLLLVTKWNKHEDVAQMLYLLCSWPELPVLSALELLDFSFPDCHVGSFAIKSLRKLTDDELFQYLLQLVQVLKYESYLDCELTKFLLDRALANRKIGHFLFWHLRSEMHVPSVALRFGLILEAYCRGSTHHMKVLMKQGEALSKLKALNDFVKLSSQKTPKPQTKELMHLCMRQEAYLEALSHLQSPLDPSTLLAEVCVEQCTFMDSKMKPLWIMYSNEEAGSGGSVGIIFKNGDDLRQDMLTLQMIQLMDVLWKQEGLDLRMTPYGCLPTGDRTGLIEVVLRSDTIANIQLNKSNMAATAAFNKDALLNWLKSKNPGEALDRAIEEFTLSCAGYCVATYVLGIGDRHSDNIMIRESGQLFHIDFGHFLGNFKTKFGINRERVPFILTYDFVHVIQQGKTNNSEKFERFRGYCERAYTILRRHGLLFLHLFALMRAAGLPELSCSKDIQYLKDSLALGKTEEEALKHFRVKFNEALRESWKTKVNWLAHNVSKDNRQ
T5 sequence (P27986 whole entry partner): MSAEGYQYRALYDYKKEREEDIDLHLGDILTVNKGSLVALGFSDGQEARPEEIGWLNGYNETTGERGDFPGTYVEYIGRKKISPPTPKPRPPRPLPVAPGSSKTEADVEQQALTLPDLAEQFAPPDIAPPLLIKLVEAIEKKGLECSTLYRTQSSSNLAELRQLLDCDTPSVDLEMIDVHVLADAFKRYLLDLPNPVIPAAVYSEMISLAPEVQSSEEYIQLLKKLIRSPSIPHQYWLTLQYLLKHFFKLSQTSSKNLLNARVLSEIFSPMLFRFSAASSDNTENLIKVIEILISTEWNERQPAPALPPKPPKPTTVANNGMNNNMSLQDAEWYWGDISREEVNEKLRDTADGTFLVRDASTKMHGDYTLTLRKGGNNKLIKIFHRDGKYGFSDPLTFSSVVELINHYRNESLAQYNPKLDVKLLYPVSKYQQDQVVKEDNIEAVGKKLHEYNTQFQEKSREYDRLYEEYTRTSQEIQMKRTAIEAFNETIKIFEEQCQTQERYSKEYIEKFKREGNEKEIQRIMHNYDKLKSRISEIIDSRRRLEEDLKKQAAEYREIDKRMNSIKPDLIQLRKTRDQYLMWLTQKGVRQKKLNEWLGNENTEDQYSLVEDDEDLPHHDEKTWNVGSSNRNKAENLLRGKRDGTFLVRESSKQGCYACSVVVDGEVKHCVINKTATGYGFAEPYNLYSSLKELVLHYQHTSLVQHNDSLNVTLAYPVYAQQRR
Procedure: as §2

RPIK2 = target: T6, RPIK2 (Homo sapiens, UniProt O43353); experiment: Kinase inhibition assay (Reaction Biology); assay type: biochemical; details: 10 μM ATP; 5-dose IC50 mode
T6 construct: purchased Reaction Biology Corporation
T6 sequence (O43353 whole entry): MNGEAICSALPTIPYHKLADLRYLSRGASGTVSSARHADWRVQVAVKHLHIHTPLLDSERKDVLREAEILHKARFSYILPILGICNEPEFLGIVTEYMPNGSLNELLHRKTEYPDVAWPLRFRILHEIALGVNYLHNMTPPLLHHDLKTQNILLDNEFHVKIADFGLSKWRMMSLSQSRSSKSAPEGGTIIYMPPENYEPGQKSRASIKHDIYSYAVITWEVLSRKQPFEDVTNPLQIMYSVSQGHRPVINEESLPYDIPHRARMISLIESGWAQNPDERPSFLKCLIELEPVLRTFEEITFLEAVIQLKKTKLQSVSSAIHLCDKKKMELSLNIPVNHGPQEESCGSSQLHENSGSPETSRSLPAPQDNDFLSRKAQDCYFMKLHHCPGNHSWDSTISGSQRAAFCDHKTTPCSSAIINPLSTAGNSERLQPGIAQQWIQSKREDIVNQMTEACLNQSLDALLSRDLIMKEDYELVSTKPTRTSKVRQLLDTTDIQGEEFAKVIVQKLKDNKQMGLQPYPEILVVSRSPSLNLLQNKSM
Procedure: as §2

ABL1 (E255K) = target: T7, ABL1 (E255K) (Homo sapiens, UniProt P00519, E255K); experiment: Inhibition of ABL mutants; assay type: biochemical; details: 10 μM ATP; 5-dose IC50 mode
T7 construct: purchased Reaction Biology Corporation
Procedure: as §2

ABL1 (G250E) = target: T8, ABL1 (G250E) (Homo sapiens, UniProt P00519, G250E); experiment: Inhibition of ABL mutants; assay type: biochemical; details: 10 μM ATP; 5-dose IC50 mode
T8 construct: purchased Reaction Biology Corporation
Procedure: as §2

ABL1 (H396P) = target: T9, ABL1 (H396P) (Homo sapiens, UniProt P00519, H396P); experiment: Inhibition of ABL mutants; assay type: biochemical; details: 10 μM ATP; 5-dose IC50 mode
T9 construct: purchased Reaction Biology Corporation
Procedure: as §2

ABL1 (M351T) = target: T10, ABL1 (M351T) (Homo sapiens, UniProt P00519, M351T); experiment: Inhibition of ABL mutants; assay type: biochemical; details: 10 μM ATP; 5-dose IC50 mode
T10 construct: purchased Reaction Biology Corporation
Procedure: as §2

ABL1 (Q252H) = target: T11, ABL1 (Q252H) (Homo sapiens, UniProt P00519, Q252H); experiment: Inhibition of ABL mutants; assay type: biochemical; details: 10 μM ATP; 5-dose IC50 mode
T11 construct: purchased Reaction Biology Corporation
Procedure: as §2

ABL1 (T315I) = target: T12, ABL1 (T315I) (Homo sapiens, UniProt P00519, T315I); experiment: Inhibition of ABL mutants; assay type: biochemical; details: 10 μM ATP; 5-dose IC50 mode
T12 construct: purchased Reaction Biology Corporation
Procedure: as §2

ABL1 (Y253F) = target: T13, ABL1 (Y253F) (Homo sapiens, UniProt P00519, Y253F); experiment: Inhibition of ABL mutants; assay type: biochemical; details: 10 μM ATP; 5-dose IC50 mode
T13 construct: purchased Reaction Biology Corporation
Procedure: as §2

PIK3-α = target: T14, PIK3-α (Homo sapiens, UniProt P42336); experiment: Inhibition of PI3K kinases; assay type: biochemical; details: Table 4; 10 μM ATP; 5-dose IC50 mode
T14 construct: purchased Reaction Biology Corporation
Procedure: as §2, with “were mixed gently and then” for “were mixed gently, and then”, “at 20 µM. Reaction was” for “at 20 μM. Reaction was”

PIK3-β = target: T15, PIK3-β (Homo sapiens, UniProt P42338); experiment: Inhibition of PI3K kinases; assay type: biochemical; details: Table 4; 10 μM ATP; 5-dose IC50 mode
T15 construct: purchased Reaction Biology Corporation
T15 sequence (P42338 whole entry): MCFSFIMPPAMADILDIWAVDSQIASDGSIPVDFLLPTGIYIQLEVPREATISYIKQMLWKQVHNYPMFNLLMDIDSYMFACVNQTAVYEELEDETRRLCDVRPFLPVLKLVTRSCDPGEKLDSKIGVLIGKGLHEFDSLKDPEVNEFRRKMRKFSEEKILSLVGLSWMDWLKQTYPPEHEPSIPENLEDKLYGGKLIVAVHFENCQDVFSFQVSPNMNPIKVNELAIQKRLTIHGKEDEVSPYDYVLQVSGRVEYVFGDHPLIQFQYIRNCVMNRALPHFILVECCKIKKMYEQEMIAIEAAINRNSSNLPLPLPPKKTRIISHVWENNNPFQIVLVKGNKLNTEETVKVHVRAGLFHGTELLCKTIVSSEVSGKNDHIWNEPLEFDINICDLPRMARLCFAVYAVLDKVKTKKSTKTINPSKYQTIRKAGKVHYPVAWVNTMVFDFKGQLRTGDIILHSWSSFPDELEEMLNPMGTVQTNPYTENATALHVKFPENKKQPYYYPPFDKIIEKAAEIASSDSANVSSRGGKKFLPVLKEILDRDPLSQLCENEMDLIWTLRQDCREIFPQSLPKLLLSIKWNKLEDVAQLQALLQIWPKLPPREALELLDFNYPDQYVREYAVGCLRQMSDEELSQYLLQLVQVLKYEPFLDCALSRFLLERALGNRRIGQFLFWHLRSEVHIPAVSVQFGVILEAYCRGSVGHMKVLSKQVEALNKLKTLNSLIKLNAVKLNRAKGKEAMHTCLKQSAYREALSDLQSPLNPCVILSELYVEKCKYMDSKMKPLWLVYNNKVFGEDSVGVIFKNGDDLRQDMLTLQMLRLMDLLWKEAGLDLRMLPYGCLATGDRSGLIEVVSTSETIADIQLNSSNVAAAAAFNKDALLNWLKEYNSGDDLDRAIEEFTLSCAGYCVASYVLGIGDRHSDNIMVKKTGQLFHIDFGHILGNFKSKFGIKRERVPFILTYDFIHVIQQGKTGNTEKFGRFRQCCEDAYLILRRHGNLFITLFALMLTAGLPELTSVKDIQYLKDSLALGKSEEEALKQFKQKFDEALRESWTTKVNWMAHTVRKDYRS
T15 sequence (P27986 whole entry partner): as the sequence (P27986 whole entry partner) above
Procedure: as §2, with “were mixed gently and then” for “were mixed gently, and then”, “at 20 µM. Reaction was” for “at 20 μM. Reaction was”

PIK3-γ = target: T16, PIK3-γ (Homo sapiens, UniProt P48736); experiment: Inhibition of PI3K kinases; assay type: biochemical; details: Table 4; 10 μM ATP; 5-dose IC50 mode
T16 construct: purchased Reaction Biology Corporation
T16 sequence (P48736 whole entry): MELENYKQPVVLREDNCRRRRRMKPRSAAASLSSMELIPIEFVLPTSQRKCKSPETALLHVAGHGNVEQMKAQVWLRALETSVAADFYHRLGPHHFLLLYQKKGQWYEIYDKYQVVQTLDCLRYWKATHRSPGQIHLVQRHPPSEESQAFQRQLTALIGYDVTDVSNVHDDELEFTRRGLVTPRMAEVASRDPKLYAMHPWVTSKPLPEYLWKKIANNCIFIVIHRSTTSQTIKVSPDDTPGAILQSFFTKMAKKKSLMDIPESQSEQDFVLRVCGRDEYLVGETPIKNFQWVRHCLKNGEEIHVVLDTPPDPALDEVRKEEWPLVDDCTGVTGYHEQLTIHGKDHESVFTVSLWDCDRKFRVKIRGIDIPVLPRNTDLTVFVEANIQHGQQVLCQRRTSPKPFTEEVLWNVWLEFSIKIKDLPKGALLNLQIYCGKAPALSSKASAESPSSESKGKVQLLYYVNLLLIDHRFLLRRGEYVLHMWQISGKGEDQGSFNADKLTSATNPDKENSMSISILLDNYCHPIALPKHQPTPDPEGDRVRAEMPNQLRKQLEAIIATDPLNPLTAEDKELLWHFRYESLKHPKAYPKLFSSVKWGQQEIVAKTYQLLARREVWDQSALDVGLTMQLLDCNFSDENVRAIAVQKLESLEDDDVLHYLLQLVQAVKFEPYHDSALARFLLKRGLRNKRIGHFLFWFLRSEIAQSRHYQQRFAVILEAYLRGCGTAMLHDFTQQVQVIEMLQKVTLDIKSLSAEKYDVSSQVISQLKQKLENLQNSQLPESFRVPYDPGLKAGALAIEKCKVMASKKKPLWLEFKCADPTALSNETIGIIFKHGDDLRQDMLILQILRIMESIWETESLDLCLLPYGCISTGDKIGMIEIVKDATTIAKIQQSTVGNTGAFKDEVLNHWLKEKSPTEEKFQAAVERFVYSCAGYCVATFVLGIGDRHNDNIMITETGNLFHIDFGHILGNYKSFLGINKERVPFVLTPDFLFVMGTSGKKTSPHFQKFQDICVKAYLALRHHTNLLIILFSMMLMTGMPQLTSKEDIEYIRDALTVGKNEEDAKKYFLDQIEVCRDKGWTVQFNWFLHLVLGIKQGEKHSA
Procedure: as §2, with “were mixed gently and then” for “were mixed gently, and then”, “at 20 µM. Reaction was” for “at 20 μM. Reaction was”

PIK3-δ = target: T17, PIK3-δ (Homo sapiens, UniProt O00329); experiment: Inhibition of PI3K kinases; assay type: biochemical; details: Table 4; 10 μM ATP; 5-dose IC50 mode
T17 construct: purchased Reaction Biology Corporation
T17 sequence (O00329 whole entry): as the sequence (O00329 whole entry) above
T17 sequence (P27986 whole entry partner): as the sequence (P27986 whole entry partner) above
Procedure: as §2, with “were mixed gently and then” for “were mixed gently, and then”, “at 20 µM. Reaction was” for “at 20 μM. Reaction was”

- IC50 (ABL1): 19 nM
- IC50 (ABL2/ARG): 30 nM
- IC50 (FGR): 124 nM
- IC50 (PI3K-α): 13 nM
- IC50 (PI3K-δ): 20 nM
- IC50 (RPIK2): 68 nM
- IC50 (ABL1 (E255K)): 106 nM
- IC50 (ABL1 (G250E)): 35 nM
- IC50 (ABL1 (H396P)): 9 nM
- IC50 (ABL1 (M351T)): 12 nM
- IC50 (ABL1 (Q252H)): 10 nM
- IC50 (ABL1 (T315I)): 2730 nM
- IC50 (ABL1 (Y253F)): 60 nM
- IC50 (PIK3-α): 4 nM
- IC50 (PIK3-β): 10 nM
- IC50 (PIK3-γ): 22 nM
- IC50 (PIK3-δ): 7 nM
SMILES: CN1CCN(c2ccc(Nc3ncc4c(n3)S/C(=C/c3ccc([N+](=O)[O-])cc3)C(=O)N4)cc2)CC1 [Compound 1b, (E)-2-(4-(4-Methylpiperazin-1-yl)phenylamino)-7-(4-nitrobenzylidene)-5H-pyrimido[4,5-b][1,4]thiazin-6(7H)-one]
- IC50 [1]: < 1000 nM
- IC50 (DU145 (prostate cancer)): < 1000 nM
